Ki data for 6 molecules are collected here from patent US20050209278A1, “Piperidinyl- and piperazinyl-sulfonylmethyl hydroxamic acids and their use as protease inhibitors” (priority 2002, published 2005).

One assay concerns the target T1, MMP-9 (Homo sapiens, UniProt P14780).
T1 construct: made in house; host or cells: MMP-9-transfected HT1080 cells (spent media)
Briefly: In vitro MMP inhibition, Ki determination (fluorogenic substrate II). The following applies: value outside parentheses. Format: biochemical. The gist of the method: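 HT1080-derived MMP-9, activated with APMA, trypsin or MMP-3, incubated 1 hr at room temperature with inhibitor and 4 μM fluorogenic substrate II (at or below Km) in pH 7.5 Tris/NaCl/CaCl2 buffer; ex 330/em 420 nm. Ki from Morrison-equation regression, without substrate correction.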

For the next assay, the target named is T2, MMP-14 (Homo sapiens, UniProt P50281).
T2 construct: The catalytic domain enzyme was expressed in E. coli inclusion bodies, solubilized in urea; made in house
The description is as above. It is filed as biochemical. The following applies: value outside parentheses; read-out: MMP-14 Ki. In short, it runs like this:
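E. coli-expressed, refolded MMP-14 catalytic domain, activated with APMA or trypsin, in 100 mM Tris-HCl pH 7.5, 100 mM NaCl, 10 mM CaCl2, 0.05% Brij-type detergent. Apparent Ki by Morrison-equation regression of velocity vs inhibitor and enzyme concentration.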

What is called Ki is the equilibrium dissociation constant of an inhibitor or competing ligand from its target.

The structures appear in SMILES notation.

T1 sequence (P14780 107-707 limits assumed): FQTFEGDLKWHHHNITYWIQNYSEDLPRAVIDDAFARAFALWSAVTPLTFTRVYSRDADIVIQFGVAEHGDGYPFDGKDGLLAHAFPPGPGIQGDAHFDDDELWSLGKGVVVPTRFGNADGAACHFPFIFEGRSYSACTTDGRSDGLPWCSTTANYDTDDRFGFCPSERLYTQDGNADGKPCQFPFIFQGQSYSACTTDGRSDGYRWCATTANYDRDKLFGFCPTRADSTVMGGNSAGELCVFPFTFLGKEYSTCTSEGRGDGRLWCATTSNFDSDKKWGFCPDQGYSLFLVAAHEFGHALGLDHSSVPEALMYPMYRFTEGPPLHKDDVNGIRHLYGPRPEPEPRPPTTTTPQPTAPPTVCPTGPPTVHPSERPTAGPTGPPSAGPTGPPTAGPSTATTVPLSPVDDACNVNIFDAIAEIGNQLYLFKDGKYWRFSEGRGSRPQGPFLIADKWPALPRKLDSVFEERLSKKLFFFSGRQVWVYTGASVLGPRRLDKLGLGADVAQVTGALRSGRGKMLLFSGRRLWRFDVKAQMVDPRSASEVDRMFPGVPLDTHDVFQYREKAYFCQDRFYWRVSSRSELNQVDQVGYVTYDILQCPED

For the molecule `O=C(NO)C1(S(=O)(=O)N2CCC(c3ccc(Br)cn3)CC2)CCOCC1` [Example 306], the Ki stood at 1.03 nM at MMP-9 and 31.7 nM at MMP-14.
As for `O=C(NO)C1(S(=O)(=O)N2CCC(c3ccc(-c4ccc(F)cc4F)cn3)CC2)CCOCC1` [Example 308], the inhibition constant Ki on MMP-9 is 11.3 nM; on MMP-14, 1040 nM.
The corresponding values for `COCCN1CCC(C(=O)NO)(S(=O)(=O)N2CCC(c3ccc(CCC(F)(F)F)cc3)CC2)CC1` [Example 309] are 0.102 nM and 1440 nM.
On to `COCCN1CCC(C(=O)NO)(S(=O)(=O)N2CCC(c3ccc(CCCC(F)(F)F)cc3)CC2)CC1` [Example 310], for which the Ki on MMP-9 amounted to 0.346 nM; on MMP-14, 4820 nM.
The corresponding values for `COCCN1CCC(C(=O)NO)(S(=O)(=O)N2CCC(c3ncc(CC(C)C)s3)CC2)CC1` [Example 311] are 35.7 nM and over 10000 nM.
The corresponding values for `COCCN1CCC(C(=O)NO)(S(=O)(=O)N2CCC(c3ccc(CCC(F)(F)C(F)(F)F)cc3)CC2)CC1` [Example 312] are 0.24 nM and 2040 nM.
